Test results reported in patent US7875620B2, “Methods of treating microbial infections” (Piper Medical, Inc., priority 2005, dated 2011).

Columns and labels:
Test in all cases: Growth inhibition on agar plates, crystalline material swabbed on
Type in all cases: cell-based
Staphylococcus aureus = system: Staphylococcus aureus
From the text: (§1) A chalky, white substance presumptively identified as monosodium urate monohydrate crystals was extracted from the subcutaneous area of an elbow of a patient presenting with a soft tissue gouty tophus at the elbow. […] The crystalline substance was swabbed onto agar plates containing Staphylococcus aureus, Staphylococcus pyogenes, Neisseria meningitis, Neisseria gonorrhorea, Escherichia coli, Methicillin resistant Staphylococcus aureus, Haemophilus influenza or Serratia Marcessens. The crystalline material inhibited the growth of the microorganisms as indicated below in Table 1.

Neisseria meningitis = conditions: agar plate containing Neisseria meningitis
From the text: as §1

Neisseria gonorrhorea = conditions: agar plate containing Neisseria gonorrhorea
From the text: as §1

Staphylococcus pyogenes = conditions: agar plate containing Staphylococcus pyogenes
From the text: as §1

[1] = system: Methicillin resistant Staphylococcus aureus; conditions: agar plate containing Methicillin resistant Staphylococcus aureus
From the text: as §1

Escherichia coli = conditions: agar plate containing Escherichia coli
From the text: as §1

Serratia Marcessens = conditions: agar plate containing Serratia Marcessens
From the text: as §1

Haemophilus influenza = conditions: agar plate containing Haemophilus influenza
From the text: as §1

O.O=c1[n-]c2c(=O)[nH]c(=O)[nH]c2[nH]1.[Na+] [Monosodium Urate Monohydrate, monosodium urate monohydrate]
Did not inhibit growth: Antimicrobial activity (growth inhibition) [1] | Antimicrobial activity (growth inhibition) (Escherichia coli) | Antimicrobial activity (growth inhibition) (Serratia Marcessens) | Antimicrobial activity (growth inhibition) (Haemophilus influenza)
Inhibited growth: Antimicrobial activity (growth inhibition) (Staphylococcus aureus; agar plate containing Staphylococcus aureus) | Antimicrobial activity (growth inhibition) (Neisseria meningitis) | Antimicrobial activity (growth inhibition) (Neisseria gonorrhorea) | Antimicrobial activity (growth inhibition) (Staphylococcus pyogenes)
exhibited bacteriocidal activity: bacteriocidal activity (Staphylococcus aureus; against S. aureus)
